pIC50: −log10 of the molar value. ≈ marks a conversion by molar mass, not a printed value.
Key:
[1] = tested on: Plasmodium falciparum; experiment: Antiplasmodial activity against asexual blood-stage Plasmodium falciparum Tm90-C2B using 2% haematocrit and 0.2% parasitemia assessed as reduction in fluorescence measured after 72 hrs by Malaria SYBR Green I-based Fluorescence (MSF) assay; format: functional, organism-based
[2] = tested on: Plasmodium falciparum; experiment: microbe, parasite or virus in culture; details: D6, 72 h
Description: Antiplasmodial activity against asexual blood-stage Plasmodium falciparum D6 using 2% haematocrit and 0.2% parasitemia assessed as reduction in fluorescence measured after 72 hrs by Malaria SYBR Green I-based Fluorescence (MSF) assay

[3] = tested on: Plasmodium falciparum; experiment: microbe, parasite or virus in culture; details: Dd2, 72 h
Description: Antiplasmodial activity against asexual blood-stage Plasmodium falciparum Dd2 using 2% haematocrit and 0.2% parasitemia assessed as reduction in fluorescence measured after 72 hrs by Malaria SYBR Green I-based Fluorescence (MSF) assay

[4] = tested on: HepG2; experiment: Cytotoxicity against human HepG2 cells assessed as cell viability measured after 48 hrs by MTT assay; format: toxicity, cell-based; details: hepg2
[5] = Metabolic stability in human liver microsomes assessed as half life measured up to 60 mins by LC/MS analysis; format: ADME, Microsome
[6] = Metabolic stability in mouse liver microsomes assessed as half life measured up to 60 mins by LC/MS analysis; format: ADME, Microsome
[7] = tested on: Plasmodium yoelii; experiment: Antimalarial activity against erythrocytic Plasmodium yoelii MRA-428 infected in CF1 mouse assessed as reduction in parasitemia at 10 mg/kg, po once daily for 4 days measured on day 5; format: functional; design: scale not given: the % may be the effect or the level left; details: time 4 day
[8] = Solubility of the compound in potassium phosphate buffer at pH 7.4 by UV-vis spectroscopy; details: buffer
[9] = tested on: MDR1 (human); experiment: Apparent permeability across apical to basolateral side in MDCK transfected with human MDR1 cells incubated for 1 hr by LC-MS analysis; details: dog, MDCK-MDR1
[10] = tested on: MDR1 (human); experiment: Apparent permeability across basolateral to apical side in MDCK transfected with human MDR1 cells incubated for 1 hr by LC-MS analysis; details: dog, MDCK-MDR1
[11] = in vitro; details: human, liver microsomes
[12] = in vitro; details: mouse, liver microsomes

Row | pIC50 [1] | pIC50 [2] | pIC50 [3] | Structure (SMILES) | pIC50 [4] | half-life [5] | half-life [6] | Activity [7] | solubility [8] | Papp A→B at 1 h [9] | Papp B→A at 1 h [10] | microsomal CLint at 1 h [11] | microsomal CLint at 1 h [12]
1 | < 5.60 | < 5.60 | < 5.60 | CCC1=C(CC)/C(=C/NC2CCCCCC2)N=C1c1ccn[nH]1 |  |  |  |  |  |  |  |  | 
2 | 5.86 | 5.68 | 6.11 | CCC1=C(CC)/C(=C/NC23C[C@H]4C[C@@H](C2)C[C@@H](C3)C4)N=C1c1ccccc1OCCN(CC)CC |  |  |  |  |  |  |  |  | 
3 | < 5.60 | < 5.60 | < 5.60 | CCc1c(C(=O)NC2CCCCC2)[nH]c(-c2ccc[nH]2)c1CC |  |  |  |  |  |  |  |  | 
4 | < 5.60 | < 5.60 | < 5.60 | CCC1=C(CC)/C(=C/NC2CCCCC2)N=C1c1ccn[nH]1 |  |  |  |  |  |  |  |  | 
5 | < 5.60 | < 5.60 | < 5.60 | CCC1=C(CC)/C(=C/NC2CCCCC2)N=C1c1cc2ccccc2[nH]1 |  |  |  |  |  |  |  |  | 
6 | < 5.60 | < 5.60 | < 5.60 | CCC1=C(CC)/C(=C/NC23C[C@H]4C[C@@H](C2)C[C@@H](C3)C4)N=C1c1ccccc1F |  |  |  |  |  |  |  |  | 
7 | < 5.60 | < 5.60 | < 5.60 | CCC1=C(CC)/C(=C/NC2CCCCC2)N=C1c1ccccc1OC |  |  |  |  |  |  |  |  | 
8 | 6.45 | 6.39 | 6.44 | C(/NC12C[C@H]3C[C@@H](C1)C[C@@H](C2)C3)=C1/N=C(c2ccc[nH]2)C(c2ccccc2)=C1c1ccccc1 |  |  |  |  |  |  |  |  | 
9 | 5.64 | 5.97 | < 5.60 | CCC1=C(CC)/C(=C/NC2CCCCC2)N=C1c1cc2cc(OC)ccc2[nH]1 |  |  |  |  |  |  |  |  | 
10 | 6.34 | 6.21 | 6.10 | C(/NC12C[C@H]3C[C@@H](C1)C[C@@H](C2)C3)=C1/N=C(c2ccc[nH]2)C(Oc2ccccc2)=C1Oc1ccccc1 |  |  |  |  |  |  |  |  | 
11 | 6.04 |  | 6.12 | CCc1c(CNC23CC4CC(CC(C4)C2)C3)[nH]c(-c2ccc[nH]2)c1CC |  |  |  |  |  |  |  |  | 
12 | 6.74 | 6.64 | 6.95 | COc1ccc(OC2=C(Oc3ccc(OC)cc3)/C(=C/NC34C[C@H]5C[C@@H](C3)C[C@@H](C4)C5)N=C2c2ccc[nH]2)cc1 |  |  |  |  |  |  |  |  | 
13 | < 5.60 | < 5.60 | < 5.60 | CCc1c(C(=O)NC23C[C@H]4C[C@@H](C2)C[C@@H](C3)C4)[nH]c(-c2ccc[nH]2)c1CC |  |  |  |  |  |  |  |  | 
14 | < 5.60 | < 5.60 | < 5.60 | CCc1c(C(=O)NC2CCCCC2)[nH]c(-c2ccc(C)[nH]2)c1CC |  |  |  |  |  |  |  |  | 
15 | < 5.60 | < 5.60 | < 5.60 | CCC1=C(CC)/C(=C/NC2CCCCC2)N=C1c1ccccc1O |  |  |  |  |  |  |  |  | 
16 | < 5.60 | < 5.60 | < 5.60 | CCc1ccc(-c2[nH]c(C(=O)NC34C[C@H]5C[C@@H](C3)C[C@@H](C4)C5)c(CC)c2CC)[nH]1 |  |  |  |  |  |  |  |  | 
17 | < 5.60 | < 5.60 | < 5.60 | CCC1=C(CC)/C(=C/NC2CCCCCCC2)N=C1c1ccn[nH]1 |  |  |  |  |  |  |  |  | 
18 | 5.97 | < 5.60 | 6.12 | CCC1=C(CC)/C(=C/NC2CCCCC2)N=C1c1ccccc1OCCN(CC)CC |  |  |  |  |  |  |  |  | 
19 | < 5.60 | < 5.60 | < 5.60 | CCc1ccc(-c2[nH]c(C(=O)NC3CCCCC3)c(CC)c2CC)[nH]1 |  |  |  |  |  |  |  |  | 
20 | < 5.60 | < 5.60 | < 5.60 | CCC1=C(CC)/C(=C/NC23C[C@H]4C[C@@H](C2)C[C@@H](C3)C4)N=C1c1ccn[nH]1 |  |  |  |  |  |  |  |  | 
21 | 5.76 | < 5.60 | 5.61 | CCC1=C(CC)/C(=C/NC23C[C@H]4C[C@@H](C2)C[C@@H](C3)C4)N=C1c1ccccc1OCCN(C)C |  |  |  |  |  |  |  |  | 
22 | 6.09 | 6.40 | < 5.60 | CCC1=C(CC)/C(=C/NC23C[C@H]4C[C@@H](C2)C[C@@H](C3)C4)N=C1c1ccc(C#N)[nH]1 |  |  |  |  |  |  |  |  | 
23 | < 5.60 | < 5.60 | < 5.60 | CCC1=C(CC)/C(=C/NC23C[C@H]4C[C@@H](C2)C[C@@H](C3)C4)N=C1c1ccccc1OC |  |  |  |  |  |  |  |  | 

Row | Structure (SMILES) | pIC50 [1] | pIC50 [2] | pIC50 [3] | pIC50 [4] | half-life [5] | half-life [6] | Activity [7] | solubility [8] | Papp A→B at 1 h [9] | Papp B→A at 1 h [10] | microsomal CLint at 1 h [11] | microsomal CLint at 1 h [12]
24 | CCC1=C(CC)/C(=C/NC2CCCCCCC2)N=C1c1ccc(-c2ccc(OC)cc2)[nH]1 | 7.60 | 7.84 | 7.65 | 5.30 | > 60 min | > 60 min | 0% | < 3.125 µM | 0.054 ×10⁻⁶ cm/s | 0.012 ×10⁻⁶ cm/s |  | 
25 | C(/NC1CCCCCC1)=C1/N=C(c2ccc[nH]2)C(Oc2ccccc2)=C1Oc1ccccc1 | < 5.60 | < 5.60 | < 5.60 |  |  |  |  |  |  |  |  | 
26 | CCC1=C(CC)/C(=C/NC2CCCCCCC2)N=C1c1ccc(-c2ccccc2)[nH]1 | 7.18 | 7.41 | 7.32 | 5.05 | 32.9 min | 52.2 min | 37.4% | 4.62 µM (≈ 1.86 µg/mL) | 0.004 ×10⁻⁶ cm/s | 0.002 ×10⁻⁶ cm/s | 42.1 µL/min/mg | 26.5 µL/min/mg
27 | COc1ccc(C2=C(c3ccc(OC)cc3)/C(=C/NC3CCCCC3)N=C2c2ccc[nH]2)cc1 | 6.73 |  | 6.46 |  |  |  |  |  |  |  |  | 
28 | CCC1=C(CC)/C(=C/NC2CCCCCCC2)N=C1c1ccc(Cc2ccc(OC)cc2)[nH]1 | 7.89 |  | 7.97 | 5.37 | > 60 min | > 60 min | 0% | < 3.125 µM | 0.074 ×10⁻⁶ cm/s | 0.12 ×10⁻⁶ cm/s |  | 
29 | CCC1=C(CC)/C(=C/NC2CCCCCC2)N=C1c1ccc(-c2ccc(OC)cc2)[nH]1 | 7.78 | 7.71 | 7.60 | 5.47 | 8.44 min | 14.5 min | 4.62% | 45.7 µM (≈ 19.1 µg/mL) | 0.045 ×10⁻⁶ cm/s | 0.013 ×10⁻⁶ cm/s | 164 µL/min/mg | 96.1 µL/min/mg
30 | CCC1=C(CC)/C(=C/NC2CCCCC2)N=C1c1ccccc1OCCN(C)C | < 5.60 | < 5.60 | 5.86 |  |  |  |  |  |  |  |  | 
31 | C(/NC1CCCCC1)=C1/N=C(c2ccc[nH]2)C(Oc2ccccc2)=C1Oc1ccccc1 | < 5.60 | < 5.60 | < 5.60 |  |  |  |  |  |  |  |  | 
32 | C(/NC1CCCCCC1)=C1/N=C(c2ccc[nH]2)C(c2ccccc2)=C1c1ccccc1 | 5.68 |  | 6.00 |  |  |  |  |  |  |  |  | 
33 | CCC1=C(CC)/C(=C/NC2CCCCC2)N=C1c1ccc(-c2ccc(OC)cc2)[nH]1 | 7.74 | 7.47 | 7.39 | 5.18 | > 60 min | > 60 min | 18.5% | < 3.125 µM | 0.01 ×10⁻⁶ cm/s | 0.003 ×10⁻⁶ cm/s | 4.54 µL/min/mg | 21.8 µL/min/mg
34 | CCC1=C(CC)/C(=C/NC2CCCCCCC2)N=C1c1ccc(Cl)[nH]1 | 7.00 | 6.73 | 7.00 | 4.91 | > 60 min | > 60 min |  | 5.37 µM (≈ 1.93 µg/mL) | 0.28 ×10⁻⁶ cm/s | 0.04 ×10⁻⁶ cm/s | 10.1 µL/min/mg | 12.4 µL/min/mg
35 | CCC1=C(CC)/C(=C/NC2CCCCCC2)N=C1c1ccc(-c2ccccc2)[nH]1 | 7.70 |  | 7.52 | 5.25 | 22.5 min | 12.1 min | 10.5% | 13.1 µM (≈ 5.08 µg/mL) |  | 0.002 ×10⁻⁶ cm/s | 61.5 µL/min/mg | 115 µL/min/mg
36 | COc1ccc(OC2=C(Oc3ccc(OC)cc3)/C(=C/NC3CCCCC3)N=C2c2ccc[nH]2)cc1 | 5.78 | 5.92 | 5.83 |  |  |  |  |  |  |  |  | 
37 | CCC1=C(CC)/C(=C/NC2CCCCC2)N=C1c1ccc(C#N)[nH]1 | < 5.60 | 5.80 | < 5.60 |  |  |  |  |  |  |  |  | 
38 | CCC1=C(CC)/C(=C/NC2CCCCC2)N=C1c1ccc(-c2ccccc2)[nH]1 | 7.86 | 7.61 | 7.56 | 5.33 | > 60 min | > 60 min | 0% | < 3.125 µM | 0.012 ×10⁻⁶ cm/s | 0.003 ×10⁻⁶ cm/s | 15.9 µL/min/mg | 17.6 µL/min/mg
39 | CCC1=C(CC)/C(=C/NC2CCCCCCC2)N=C1c1ccc(C#N)[nH]1 | < 5.60 | < 5.60 | < 5.60 |  |  |  |  |  |  |  |  | 
40 | COc1ccc(C2=C(c3ccc(OC)cc3)/C(=C/NC3CCCCCC3)N=C2c2ccc[nH]2)cc1 | 6.88 |  | 6.48 |  |  |  |  |  |  |  |  | 
41 | C(/NC1CCCCC1)=C1/N=C(c2ccc[nH]2)C(c2ccccc2)=C1c1ccccc1 | 5.77 | 5.82 | 5.89 |  |  |  |  |  |  |  |  | 
42 | CCC1=C(CC)/C(=C/NC2CCCCCC2)N=C1c1ccc(C#N)[nH]1 | < 5.60 | < 5.60 | < 5.60 |  |  |  |  |  |  |  |  | 
43 | CCC1=C(CC)/C(=C/NC2CCCCC2)N=C1c1ccccc1F | < 5.60 | < 5.60 | < 5.60 |  |  |  |  |  |  |  |  | 
44 | COc1ccc(OC2=C(Oc3ccc(OC)cc3)/C(=C/NC3CCCCCC3)N=C2c2ccc[nH]2)cc1 | 5.66 | 5.83 | 5.76 |  |  |  |  |  |  |  |  | 

Source: ChEMBL document CHEMBL6178021, “Optimization of Tambjamines Active against Multiple Stages of Malaria Parasites” (J Med Chem, 2025)
